# Data reported in patent US4399136A, “Pyrazolopyridazine antihypertensives” (Hoffmann-La Roche Inc., priority 1980, dated 1983).
# Biological target: T1, angiotensin converting enzyme, extracted from rabbit lung (Oryctolagus cuniculus, UniProt P12822)
# T1 construct: extracted from rabbit lung; from tissue; host or cells: rabbit lung
# T1 sequence (P12822 34-1310): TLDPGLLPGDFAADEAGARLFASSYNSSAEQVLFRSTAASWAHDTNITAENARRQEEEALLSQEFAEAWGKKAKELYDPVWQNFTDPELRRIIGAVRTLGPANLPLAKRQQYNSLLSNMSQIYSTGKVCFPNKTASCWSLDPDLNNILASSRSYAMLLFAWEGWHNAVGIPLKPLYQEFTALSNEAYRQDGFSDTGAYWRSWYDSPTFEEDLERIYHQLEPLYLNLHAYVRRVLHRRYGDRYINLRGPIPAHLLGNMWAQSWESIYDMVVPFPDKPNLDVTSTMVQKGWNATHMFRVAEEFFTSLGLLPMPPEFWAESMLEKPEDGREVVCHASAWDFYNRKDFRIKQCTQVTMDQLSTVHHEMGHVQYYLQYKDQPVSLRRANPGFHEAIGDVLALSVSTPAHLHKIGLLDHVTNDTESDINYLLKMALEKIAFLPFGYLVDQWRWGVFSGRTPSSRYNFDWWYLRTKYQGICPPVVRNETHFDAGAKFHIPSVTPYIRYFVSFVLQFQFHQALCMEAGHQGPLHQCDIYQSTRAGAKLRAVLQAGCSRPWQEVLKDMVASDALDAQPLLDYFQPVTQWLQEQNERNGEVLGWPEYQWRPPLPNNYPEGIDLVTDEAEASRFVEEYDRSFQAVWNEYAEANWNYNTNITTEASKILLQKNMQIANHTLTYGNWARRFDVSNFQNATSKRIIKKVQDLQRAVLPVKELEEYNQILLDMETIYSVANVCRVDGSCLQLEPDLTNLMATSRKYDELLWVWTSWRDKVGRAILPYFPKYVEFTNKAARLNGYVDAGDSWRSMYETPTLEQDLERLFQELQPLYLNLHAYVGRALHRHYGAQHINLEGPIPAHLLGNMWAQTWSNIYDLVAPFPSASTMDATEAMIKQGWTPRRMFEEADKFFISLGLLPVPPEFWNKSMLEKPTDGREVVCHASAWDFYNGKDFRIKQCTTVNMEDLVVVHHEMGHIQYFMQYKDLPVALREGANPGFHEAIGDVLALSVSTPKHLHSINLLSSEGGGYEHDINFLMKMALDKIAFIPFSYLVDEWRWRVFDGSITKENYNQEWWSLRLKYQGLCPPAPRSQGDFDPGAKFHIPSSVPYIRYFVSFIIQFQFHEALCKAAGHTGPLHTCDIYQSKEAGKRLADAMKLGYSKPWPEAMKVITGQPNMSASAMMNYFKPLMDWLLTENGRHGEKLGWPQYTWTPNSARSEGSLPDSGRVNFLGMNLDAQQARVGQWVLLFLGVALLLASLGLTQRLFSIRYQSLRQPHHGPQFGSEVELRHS
# Test: in vitro inhibition of angiotensin converting enzyme (cleavage of hippuryl-histidyl-leucine)
# Assay type: biochemical
# Settings: hippuryl-histidyl-leucine 2 mM; rabbit lung ACE; pH 8.3; 25 minutes at 37° C.
# Protocol: The activity of the pyrazolopyridazine derivatives of formula I in inhibiting angiotensin converting enzyme in vitro can be determined by the following test.
# The method used is based on the method of Cushman and Cheung (Biochem. Pharmacol., 20, 1637-1648) incorporating the modifications introduced by Hayakari et al. (Anal. Biochem., 84, 361-369). The substrate (hippuryl-histidyl-leucine, 2 mM) is incubated with angiotensin converting enzyme, extracted from rabbit lung, in the presence or absence of various concentrations of test substance in potassium phosphate buffer (pH 8.3; 100 mM) containing sodium chloride (300 mM) for 25 minutes at 37° C. (total […] 500 μl). The reaction is terminated by the addition of 3 ml of potassium phosphate buffer (pH 8.3; 200 mM) at 0° C. 2,4,6-Trichloro-s-triazine (3%) in 1.5 ml of dioxane is added and the mixture is agitated until the yellow chromophore has developed fully. The samples are then centrifuged to remove any precipitate which has formed. The yellow chromophore formed by the reaction of the 2,4,6-trichloro-s-triazine with free hippuric acid is measured spectrophotometrically at 382 nm. IC50 values are defined as the concentration of test substance which reduces by 50% the cleavage of hippurly-histidyl-leucine by angiotensin converting enzyme under the aforementioned conditions.
row,SMILES,IC50 [nM]
1,"CC1(CCS)C(=O)N2CCCC(C(=O)O)N2C1=O (stereo not drawn) [Compound A, Hexahydro-2-(2-mercaptoethyl)-2-methyl-1,3-dioxo-1H-pyrazolo[1,2-a]pyridazine-5-carboxylic acid]",100
2,"CC1(CCS)CN2CCCC(C(=O)O)N2C1=O (stereo not drawn) [Compound B, Hexahydro-2-(2-mercaptoethyl)-2-methyl-3-oxo-1H-pyrazolo[1,2-a]pyridazine-5-carboxylic acid]",100
3,"CCC1(CCS)C(=O)N2CC=CC(C(=O)O)N2C1=O (stereo not drawn) [Compound C, 2-Ethyl-2,3,5,8-tetrahydro-2-(2-mercaptoethyl)-1,3-dioxo-1H-pyrazolo-[1,2-a]pyridazine-5-carboxylic acid]",43
